As a reminder, the EC50 is the concentration needed to bring the measured effect to its halfway point.

One test concerns NL-RLuc virus (recombinant HIV NL4-3 with Renilla Luciferase) in MT-2 cells. The test is described as follows: Inhibition of HIV replication (NL-RLuc virus in MT-2 cells, luciferase readout). It counts as cell-based, human immunodeficiency virus (HIV). The settings on record: MT2, 120 h, NL-RLuc virus infecting MT-2 cells, 5 days of incubation, 10% FBS, luciferase quantitation; at least 2 experiments. From the text: Inhibition of HIV Replication:
A recombinant NL-RLuc proviral clone was constructed in which a section of the nef gene from NL4-3 was replaced with the Renilla Luciferase gene. This virus is fully infectious and can undergo multiple cycles of replication in cell culture. In addition, the luciferous reporter provides a simple and easy method for quantitating the extent of virus growth and consequently, the antiviral activity of test compounds. The plasmid pNLRLuc contains the proviral NL-Rluc DNA cloned into pUC 18 at the PvuII site. The NL-RLuc virus was prepared by transfection of 293T cells with the plasmid pNLRLuc. Transfections were performed using the LipofectAMINE PLUS kit from Invitrogen (Carlsbad, Calif.) according to the manufacturer and the virus generated was titered in MT-2 cells. For susceptibility analyses, the titrated virus was used to infect MT-2 cells in the presence of compound, and after 5 days of incubation, cells were processed and quantitated for virus growth by the amount of expressed luciferase. Assay media was RPMI 1640 supplemented with 10% heat inactivated fetal bovine serum (FBS), 100 units/ml penicillin G/100 units/ml streptomycin, 10 mM HEPES buffer pH 7.55 and 2 mM L-glutamine. The results from at least 2 experiments were used to calculate the EC50 values. Luciferase was quantitated using the Dual Luciferase kit from Promega (Madison, Wis.). Susceptibility of viruses to compounds was determined by incubation in the presence of serial dilutions of the compound. The 50% effective concentration (EC50) was calculated by using the exponential form of the median effect equation where (Fa)=1/[1+(ED50/drug conc.)^m] (Johnson V A, Byington R T. Infectivity Assay. In Techniques in HIV Research. ed. Aldovini A, Walker B D. 71-76. New York: Stockton Press. 1990).
On to `Cc1nc2cc3nn2c(c1[C@H](OC(C)(C)C)C(=O)O)N1CCC(C)(CC1)OCCCCOCc1cn(nn1)C3` [Example 2, (2S)-2-(tert-Butoxy)-2-{4,22-dimethyl-16,21-dioxa-1,5,7,8,11,12,13-heptaazapentacyclo[20.2.2.1^6,^9.1^11,^14.0^2,^7]octacosa-2,4,6(28),8,12,14(27)-hexaen-3-yl}acetic acid], for which the concentration for a half-maximal effect (EC50) stood at 2690 nM.
Regarding `Cc1ccc2c(c1)O[C@@H](C)CCCCOC1(C)CCN(CC1)c1c([C@H](OC(C)(C)C)C(=O)O)c(C)nc3cc(nn13)CO[C@@H]2C` (single isomer, unassigned) [Example 56], the EC50 is 8 nM.
On the same count and under the same terms, the value for `Cc1cc(CN2CCCCOC3(C)CCN(CC3)c3c([C@H](OC(C)(C)C)C(=O)O)c(C)nc4cc(nn34)CNC(=O)C2=O)ccc1F` [Example 19, (2S)-2-(tert-Butoxy)-2-{14-[(4-fluoro-3-methylphenyl)methyl]-4,20-dimethyl-12,13-dioxo-19-oxa-1,5,7,8,11,14-hexaazatetracyclo[18.2.2.1^6,^9.0^2,^7]pentacosa-2,4,6(25),8-tetraen-3-yl}acetic acid] was 34 nM; that for `Cc1nc2cc3nn2c(c1[C@H](OC(C)(C)C)C(=O)O)N1CCC(C)(CC1)OCCCCc1cc(F)ccc1COC3` [Example 66, (2S)-2-(tert-Butoxy)-2-{16-fluoro-4,24-dimethyl-11,23-dioxa-1,5,7,8-tetraazapentacyclo[22.2.2.1^6,^9.0^2,^7.0^13,^18]nonacosa-2,4,6(29),8,13(18),14,16-heptaen-3-yl}acetic acid] was 4 nM.
Turning to `Cc1nc2cc3nn2c(c1[C@H](OC(C)(C)C)C(=O)O)N1CCC(C)(CC1)OCCCC[C@@H](COCc1ccccc1)OC3` [Example 48, (2S)-2-[(12S)-12-[(benzyloxy)methyl]-4,18-dimethyl-11,17-dioxa-1,5,7,8-tetraazatetracyclo[16.2.2.1^6,^9.0^2,^7]tricosa-2,4,6(23),8-tetraen-3-yl]-2-(tert-butoxy)acetic acid], the EC50 is 111 nM.
The same measure, in the same setting: the value for `Cc1nc2cc3nn2c(c1[C@H](OC(C)(C)C)C(=O)O)N1CCC(C)(CC1)OCCCC[C@H](C)Oc1cc(F)ccc1CCC3` [Example 39, (2S)-2-(tert-Butoxy)-2-[(20S)-16-fluoro-4,20,26-trimethyl-19,25-dioxa-1,5,7,8-tetraazapentacyclo[24.2.2.1^6,^9.0^2,^7.0^13,^18]hentriaconta-2,4,6(31),8,13(18),14,16-heptaen-3-yl]acetic acid] was 5 nM; that for `Cc1nc2cc3nn2c(c1[C@H](OC(C)(C)C)C(=O)O)N1CCC(C)(CC1)OCCCCc1ccccc1C(=O)NC3` [Example 15, (2S)-2-(tert-Butoxy)-2-{4,24-dimethyl-12-oxo-23-oxa-1,5,7,8,11-pentaazapentacyclo[22.2.2.1^6,^9.0^2,^7.0^13,^18]nonacosa-2,4,6(29),8,13(18),14,16-heptaen-3-yl}acetic acid] was 120 nM.
On the same count and under the same terms, the result for `Cc1ccc2c(c1)CCCCOC1(C)CCN(CC1)c1c([C@H](OC(C)(C)C)C(=O)O)c(C)nc3cc(nn13)COC2` [Example 65, (2S)-2-(tert-Butoxy)-2-{4,16,24-trimethyl-11,23-dioxa-1,5,7,8-tetraazapentacyclo[22.2.2.1^6,^9.0^2,^7.0^13,^18]nonacosa-2,4,6(29),8,13(18),14,16-heptaen-3-yl}acetic acid] reads 2 nM; that for `Cc1nc2cc3nn2c(c1[C@H](OC(C)(C)C)C(=O)O)N1CCC(C)(CC1)OCCCc1cc(F)ccc1COC3` [Example 67, (2S)-2-(tert-Butoxy)-2-{16-fluoro-4,23-dimethyl-11,22-dioxa-1,5,7,8tetraazapentacyclo[21.2.2.1^6,^9.0^2,^7.0^13,^18]octacosa-2,4,6(28),8,13(18),14,16-heptaen-3-yl}acetic acid], 5 nM; that for `Cc1cc(CN2CC=CCOC3(C)CCN(CC3)c3c([C@H](OC(C)(C)C)C(=O)O)c(C)nc4cc(nn34)CNC(=O)C2=O)ccc1F` [Example 18, (2S)-2-(tert-Butoxy)-2-[14-[(4-fluoro-3-methylphenyl)methyl]-4,20-dimethyl-12,13-dioxo-19-oxa-1,5,7,8,11,14-hexaazatetracyclo[18.2.2.1^6,^9.0^2,^7]pentacosa-2,4,6(25),8,16-pentaen-3-yl]acetic acid], 122 nM.
The same measure, in the same setting: the result for `Cc1nc2cc3nn2c(c1[C@H](OC(C)(C)C)C(=O)O)N1CCC(C)(CC1)OCCCCCc1cc(F)ccc1CN(C1CC1)C3` [Example 62, (2S)-2-(tert-Butoxy)-2-{11-cyclopropyl-16-fluoro-4,25-dimethyl-24-oxa-1,5,7,8,11-pentaazapentacyclo[23.2.2.1^6,^9.0^2,^7.0^13,^18]triaconta-2,4,6(30),8,13(18),14,16-heptaen-3-yl}acetic acid] reads 41 nM; that for `Cc1nc2cc3nn2c(c1[C@H](OC(C)(C)C)C(=O)O)N1CCC(C)(CC1)OCC=Cc1cc(C(F)(F)F)ccc1COC3` [Example 26, (2S)-2-(tert-Butoxy)-2-[4,23-dimethyl-16-(trifluoromethyl)-11,22-dioxa-1,5,7,8-tetraazapentacyclo[21.2.2.1^6,^9.0^2,^7.0^13,^18]octacosa-2,4,6(28),8,13(18),14,16,19-octaen-3-yl]acetic acid], 32 nM; that for `Cc1nc2cc3nn2c(c1[C@H](OC(C)(C)C)C(=O)O)N1CCC(C)(CC1)OCCCC[C@H](C)Oc1cc(F)c(F)cc1CCC3` [Example 43, (2S)-2-(tert-Butoxy)-2-[(20S)-15,16-difluoro-4,20,26-trimethyl-19,25-dioxa-1,5,7,8-tetraazapentacyclo[24.2.2.1^6,^9.0^2,^7.0^13,^18]hentriaconta-2,4,6(31),8,13(18),14,16-heptaen-3-yl]acetic acid], 1 nM.
`Cc1nc2cc3nn2c(c1[C@H](OC(C)(C)C)C(=O)O)N1CCC(C)(CC1)OCCCC[C@H](C)Oc1cc(F)cc(F)c1COC3` [Example 32, (2S)-2-(tert-Butoxy)-2-[(20S)-14,16-difluoro-4,20,26-trimethyl-11,19,25-trioxa-1,5,7,8-tetraazapentacyclo[24.2.2.1^6,^9.0^2,^7.0^13,^18]hentriaconta-2,4,6(31),8,13,15,17-heptaen-3-yl]acetic acid]: the EC50 was determined as 3 nM.

Still in this test, the particulars now being: NL-RLuc virus infecting MT-2 cells, 5 days of incubation, 10% FBS, luciferase quantitation; at least 2 experiments; read-out: EC50.
With `Cc1nc2cc3nn2c(c1[C@H](OC(C)(C)C)C(=O)O)N1CCC(C)(CC1)OCC=CCOc1ccccc1CC(=O)NC3` [Example 16, (2S)-2-(tert-Butoxy)-2-[4,26-dimethyl-12-oxo-20,25-dioxa-1,5,7,8,11-pentaazapentacyclo[24.2.2.1^6,^9.1^2,^7.0^14,^19]hentriaconta-2,4,6(31),8,14(19),15,17,22-octaen-3-yl]acetic acid], the EC50 stood at 21 nM.
Turning to `Cc1nc2cc3nn2c(c1[C@H](OC(C)(C)C)C(=O)O)N1CCC(C)(CC1)OCCCC[C@H](C)Oc1cc(F)ccc1CCC3` [Example 40, (2S)-2-(tert-Butoxy)-2-[(20S)-16-fluoro-4,20,26-trimethyl-19,25-dioxa-1,5,7,8-tetraazapentacyclo[24.2.2.1^6,^9.0^2,^7.0^13,^18]hentriaconta-2,4,6(31),8,13(18),14,16-heptaen-3-yl]acetic acid], the EC50 stood at 31 nM.
Still for that read-out and setting: the result for `Cc1nc2cc3nn2c(c1[C@H](OC(C)(C)C)C(=O)O)N1CCC(C)(CC1)OC=CCCOC(C)(C)c1cn(nn1)C3` [Example 3, (2S)-2-(tert-Butoxy)-2-[4,15,15,22-tetramethyl-16,21-dioxa-1,5,7,8,11,12,13-heptaazapentacyclo[20.2.2.1^6,^9.1^11,^14.0^2,^7]octacosa-2,4,6(28),8,12,14(27),19-heptaen-3-yl]acetic acid] reads 253 nM; that for `Cc1ccc2c(c1)O[C@@H](C)C/C=C\COC1(C)CCN(CC1)c1c([C@H](OC(C)(C)C)C(=O)O)c(C)nc3cc(nn13)COC2` [Example 36, (2S)-2-(tert-Butoxy)-2-[(20S,22Z)-4,16,20,26-tetramethyl-11,19,25-trioxa-1,5,7,8-tetraazapentacyclo[24.2.2.1^6,^9.0^2,^7.0^13,^18]hentriaconta-2,4,6(31),8,13(18),14,16,22-octaen-3-yl]acetic acid], 3690 nM.

The same test, now with this note: {}.
On to `CCCC1CCCCOC2(C)CCN(CC2)c2c([C@H](OC(C)(C)C)C(=O)O)c(C)nc3cc(nn23)COCc2ccc(C)cc2O1` (stereo partly drawn) [Example 45, (2S)-2-(tert-butoxy)-2-{4,16,26-trimethyl-20-propyl-11,19,25-trioxa-1,5,7,8-tetraazapentacyclo[24.2.2.1^6,^9.0^2,^7.0^13,^18]hentriaconta-2,4,6(31),8,13(18),14,16-heptane-3-yl}acetic acid], for which the EC50 amounted to 35 nM.
Still for that read-out and setting: the value for `Cc1ccc(C2CCCCOC3(C)CCN(CC3)c3c([C@H](OC(C)(C)C)C(=O)O)c(C)nc4cc(nn34)CO2)cc1` (stereo partly drawn) [Example 47, (2S)-2-(tert-butoxy)-2-[4,18-dimethyl-12-(4-methylphenyl)-11,17-dioxa-1,5,7,8-tetraazatetracyclo[16.2.2.1^6,^9.0^2,^7]tricosa-2,4,6(23),8-tetraen-3-yl]acetic acid] was 1590 nM.

The record behind these values is patent US9273067B2, “Pyrazolopyrimidine macrocycles as inhibitors of human immunodeficiency virus replication” (BRISTOL-MYERS SQUIBB COMPANY, priority 2014, dated 2016).
